Reference: US20250051344A1, “BIFUNCTIONAL SELECTIVE DEGRADERS OF SMARCA2 AND THERAPEUTIC USES THEREOF” (Nurix Therapeutics, Inc., priority 2023, published 2025)

Tests used:
[1] = molecular target: T1, SMARCA2 (Homo sapiens, UniProt P51531); assay: SMARCA2 Cellular Degradation Assay (Western blot analysis on Jess platform); assay type: cell-based; details: for DC50 / Dmax: cellular degradation; for Fold Selectivity SMARCA4/2: ratio DC50 SMARCA4 / DC50 SMARCA2
T1 construct: endogenous in cells
Summary of the method: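 Cells recovered from tumors are lysed, cleared at 20,817×g, and protein is quantified by BCA. Equal protein (5 μg) is then probed on Jess for SMARCA2 and actin, and normalized SMARCA2 signal is reported against vehicle.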

[2] = molecular target: T2, SMARCA4 (Homo sapiens, UniProt P51532); assay: Cellular degradation assay, SMARCA4 (Table 1); assay type: cell-based
T2 construct: endogenous in cells
T2 sequence (P51532 whole entry, species assumed): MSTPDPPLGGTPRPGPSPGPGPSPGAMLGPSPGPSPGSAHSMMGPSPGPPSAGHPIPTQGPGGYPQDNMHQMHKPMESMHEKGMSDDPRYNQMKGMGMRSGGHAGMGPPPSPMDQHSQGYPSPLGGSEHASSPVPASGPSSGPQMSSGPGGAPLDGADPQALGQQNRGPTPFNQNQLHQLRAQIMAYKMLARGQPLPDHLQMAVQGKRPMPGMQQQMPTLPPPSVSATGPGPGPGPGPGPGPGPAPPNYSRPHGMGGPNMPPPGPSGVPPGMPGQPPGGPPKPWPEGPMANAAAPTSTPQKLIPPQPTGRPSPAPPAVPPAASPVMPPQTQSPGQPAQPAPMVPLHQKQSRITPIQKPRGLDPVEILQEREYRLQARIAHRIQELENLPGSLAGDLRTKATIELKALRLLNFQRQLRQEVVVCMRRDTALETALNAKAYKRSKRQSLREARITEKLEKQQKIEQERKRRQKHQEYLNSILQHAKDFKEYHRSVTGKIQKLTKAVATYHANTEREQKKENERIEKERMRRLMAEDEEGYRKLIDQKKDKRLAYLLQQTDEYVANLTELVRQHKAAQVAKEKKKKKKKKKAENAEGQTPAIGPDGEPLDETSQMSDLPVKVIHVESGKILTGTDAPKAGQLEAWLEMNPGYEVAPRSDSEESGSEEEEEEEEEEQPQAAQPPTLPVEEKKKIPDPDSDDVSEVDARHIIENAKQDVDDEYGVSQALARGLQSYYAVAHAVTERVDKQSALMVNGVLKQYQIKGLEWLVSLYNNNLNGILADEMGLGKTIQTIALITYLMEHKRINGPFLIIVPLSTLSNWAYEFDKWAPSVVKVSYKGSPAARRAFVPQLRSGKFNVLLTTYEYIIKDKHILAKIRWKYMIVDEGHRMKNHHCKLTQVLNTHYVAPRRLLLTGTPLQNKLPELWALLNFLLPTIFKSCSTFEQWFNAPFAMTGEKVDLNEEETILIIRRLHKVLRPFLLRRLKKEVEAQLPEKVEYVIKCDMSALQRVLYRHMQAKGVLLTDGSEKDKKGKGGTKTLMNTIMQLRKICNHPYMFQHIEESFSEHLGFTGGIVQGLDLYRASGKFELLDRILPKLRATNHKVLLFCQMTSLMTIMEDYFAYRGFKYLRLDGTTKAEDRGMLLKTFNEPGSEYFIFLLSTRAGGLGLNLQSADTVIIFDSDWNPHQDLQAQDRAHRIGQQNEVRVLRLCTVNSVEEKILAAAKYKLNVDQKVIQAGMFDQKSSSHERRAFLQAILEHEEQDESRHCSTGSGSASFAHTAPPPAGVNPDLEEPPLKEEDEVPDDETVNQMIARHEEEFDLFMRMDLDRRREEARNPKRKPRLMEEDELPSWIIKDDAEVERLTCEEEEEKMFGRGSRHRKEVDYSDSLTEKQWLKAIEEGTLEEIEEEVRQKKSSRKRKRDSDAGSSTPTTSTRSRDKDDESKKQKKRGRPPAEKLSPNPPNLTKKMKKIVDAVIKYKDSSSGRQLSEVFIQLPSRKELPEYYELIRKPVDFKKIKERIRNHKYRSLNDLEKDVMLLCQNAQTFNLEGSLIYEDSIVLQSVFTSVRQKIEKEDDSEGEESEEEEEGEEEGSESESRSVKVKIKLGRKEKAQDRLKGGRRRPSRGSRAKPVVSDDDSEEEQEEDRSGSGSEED

T1 sequence (P51531 whole entry, species assumed): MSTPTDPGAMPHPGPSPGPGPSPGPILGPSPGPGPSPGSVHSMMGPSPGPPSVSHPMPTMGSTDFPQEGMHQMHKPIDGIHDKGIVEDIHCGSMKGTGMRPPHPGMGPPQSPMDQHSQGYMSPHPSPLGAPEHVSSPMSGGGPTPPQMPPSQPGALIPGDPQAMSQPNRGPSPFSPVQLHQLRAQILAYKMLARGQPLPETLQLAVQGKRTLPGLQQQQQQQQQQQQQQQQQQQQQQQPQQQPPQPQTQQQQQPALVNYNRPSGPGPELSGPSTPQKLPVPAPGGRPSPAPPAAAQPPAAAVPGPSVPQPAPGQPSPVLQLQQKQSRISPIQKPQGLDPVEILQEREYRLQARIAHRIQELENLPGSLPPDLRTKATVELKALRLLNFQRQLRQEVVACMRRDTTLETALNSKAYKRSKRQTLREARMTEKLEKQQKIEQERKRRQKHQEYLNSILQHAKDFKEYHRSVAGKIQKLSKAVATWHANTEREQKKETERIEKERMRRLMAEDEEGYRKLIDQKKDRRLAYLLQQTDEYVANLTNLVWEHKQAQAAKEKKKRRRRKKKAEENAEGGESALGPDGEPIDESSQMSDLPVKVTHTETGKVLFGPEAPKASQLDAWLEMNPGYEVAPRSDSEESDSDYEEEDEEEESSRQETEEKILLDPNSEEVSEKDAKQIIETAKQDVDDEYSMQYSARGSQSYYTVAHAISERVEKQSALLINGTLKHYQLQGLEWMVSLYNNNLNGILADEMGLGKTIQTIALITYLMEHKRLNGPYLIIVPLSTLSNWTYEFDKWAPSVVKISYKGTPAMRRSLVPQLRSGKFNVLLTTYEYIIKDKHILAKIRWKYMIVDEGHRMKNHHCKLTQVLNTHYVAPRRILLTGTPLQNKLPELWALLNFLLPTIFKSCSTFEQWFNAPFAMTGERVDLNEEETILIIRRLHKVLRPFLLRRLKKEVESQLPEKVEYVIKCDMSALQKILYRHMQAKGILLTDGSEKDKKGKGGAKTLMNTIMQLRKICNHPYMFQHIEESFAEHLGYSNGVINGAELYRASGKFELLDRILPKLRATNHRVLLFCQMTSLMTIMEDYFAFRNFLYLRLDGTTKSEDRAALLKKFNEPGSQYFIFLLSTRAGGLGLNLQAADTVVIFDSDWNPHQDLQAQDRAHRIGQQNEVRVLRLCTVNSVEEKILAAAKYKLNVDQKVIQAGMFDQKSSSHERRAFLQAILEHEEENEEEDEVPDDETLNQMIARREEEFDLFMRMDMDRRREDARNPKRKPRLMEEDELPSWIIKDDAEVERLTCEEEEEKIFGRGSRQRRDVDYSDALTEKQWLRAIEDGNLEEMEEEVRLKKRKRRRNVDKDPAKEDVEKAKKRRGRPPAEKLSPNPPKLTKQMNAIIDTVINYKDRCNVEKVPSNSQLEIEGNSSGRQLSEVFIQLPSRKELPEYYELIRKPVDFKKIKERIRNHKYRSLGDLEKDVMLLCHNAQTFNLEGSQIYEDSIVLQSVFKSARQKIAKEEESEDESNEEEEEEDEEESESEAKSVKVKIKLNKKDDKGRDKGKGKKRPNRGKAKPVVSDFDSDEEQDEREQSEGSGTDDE

SMILES | DC50 [1] [nM] | Dmax [1] [%] | Fold Selectivity SMARCA4/2 [1] | Dmax [2] [%] | DC50 [2] [nM]
O=C1CCC(c2ccc(N3CCC(F)(CCN4CC5(C4)CN(C(=O)C4(c6ccccc6)CCN(c6cnnc(-c7ccccc7O)c6)CC4)C5)CC3)cc2)C(=O)N1 (racemic) [Example 122, rac-(3R)-3-(4-{4-fluoro-4-[2-(6-{1-[6-(2-hydroxyphenyl)pyridazin-4-yl]-4-phenylpiperidine-4-carbonyl}-2,6-diazaspiro[3.3]heptan-2-yl)ethyl]piperidin-1-yl}phenyl)piperidine-2,6-dione] | 9.13 | 73.6 | 1095 | 34.8 | –
O=C1CCC(c2ccc(C3CCN(CC(=O)N4CC5(C4)CN(C(=O)C4(Oc6ccccc6Cl)CCN(c6cnnc(-c7ccccc7O)c6)CC4)C5)CC3)cc2)C(=O)N1 (racemic) [Example 113, rac-(r)-3-(4-(1-(2-(6-(4-(2-chlorophenoxy)-1-(6-(2-hydroxyphenyl)pyridazin-4-yl)piperidine-4-carbonyl)-2,6-diazaspiro[3.3]heptan-2-yl)-2-oxoethyl)piperidin-4-yl)phenyl)piperidine-2,6-dione] | 9.76 | 83.6 | 9 | 63.4 | 87.4
CC(N[C@H]1CC[C@@H](NC(=O)C2(c3ccccc3)CCN(c3cnnc(-c4ccccc4O)c3)CC2)CC1)C1CCN(c2ccc([C@H]3CCC(=O)NC3=O)cn2)CC1 (mixture of isomers) [Example 147, 1-[6-(2-hydroxyphenyl)pyridazin-4-yl]-4-phenyl-N-[(1,4s)-4-{[1-(1-{5-[(3rs)-2,6-dioxopiperidin-3-yl]pyridin-2-yl}piperidin-4-yl)ethyl]amino}cyclohexyl]piperidine-4-carboxamide] | 13.7 | 76.8 | 3 | 64.5 | 47.3
C[C@@H](Oc1ccc(C2CCC(=O)NC2=O)cc1)C1CCN(C(=O)C2(c3ccccc3)CCN(c3cnnc(-c4ccccc4O)c3)CC2)CC1 (mixture of isomers) [Example 3, (3RS)-3-{4-[(1R)-1-(1-{1-[6-(2-hydroxyphenyl)pyridazin-4-yl]-4-phenylpiperidine-4-carbonyl}piperidin-4-yl)ethoxy]phenyl}piperidine-2,6-dione] | – | 54.2 | 1 | 17.5 | –
COC1(C(=O)N(C)C2CCN(C(=O)CN3CCC(c4ccc([C@@H]5CCC(=O)NC5=O)cc4)CC3)CC2)CCN(c2cnnc(-c3ccccc3O)c2)CC1 (racemic) [Example 111, rac-n-(1-(2-(4-(4-(2,6-dioxopiperidin-3-yl)phenyl)piperidin-1-yl)acetyl)piperidin-4-yl)-1-(6-(2-hydroxyphenyl)pyridazin-4-yl)-4-methoxy-n-methylpiperidine-4-carboxamide] | 11.1 | 81.4 | 19 | 57.5 | 210
O=C1CC[C@@H](c2ccc(N3CCC(CN4CCC5(C4)CN(C(=O)C4(c6ccccc6)CCN(c6cnnc(-c7ccccc7O)c6)CC4)C5)CC3)cc2)C(=O)N1 [Example 9, (3S)-3-(4-{4-[(2-{1-[6-(2-hydroxyphenyl)pyridazin-4-yl]-4-phenylpiperidine-4-carbonyl}-2,6-diazaspiro[3.4]octan-6-yl)methyl]piperidin-1-yl}phenyl)piperidine-2,6-dione] | 19.9 | 75.2 | 336.59 | 44.7 | 6720
CN(C(=O)C1(c2ccccc2)CCN(c2cnnc(-c3ccccc3O)c2)CC1)C1CCN(CCC2CCN(c3ccc([C@H]4CCC(=O)NC4=O)cc3)CC2)CC1 [Example 192, N-{1-[2-(1-{4-[(3R)-2,6-dioxopiperidin-3-yl]phenyl}piperidin-4-yl)ethyl]piperidin-4-yl}-1-[6-(2-hydroxyphenyl)pyridazin-4-yl]-N-methyl-4-phenylpiperidine-4-carboxamide] | 4.58 | 88.8 | 28 | 46.4 | 128
Cc1cc(C2(C(=O)N(C)C3CCN(CC4CCN(c5ccc(C6CCC(=O)NC6=O)cc5)CC4)CC3)CCN(c3cnnc(-c4ccccc4O)c3)CC2)on1 (racemic) [Example 90, rac-N-{1-[(1-{4-[(3R)-2,6-dioxopiperidin-3-yl]phenyl}piperidin-4-yl)methyl]piperidin-4-yl}-1-[6-(2-hydroxyphenyl)pyridazin-4-yl]-N-methyl-4-(3-methyl-1,2-oxazol-5-yl)piperidine-4-carboxamide] | 8.55 | 76.5 | 1170 | 34.8 | –
CC1CC2CN(CC3CCN(c4ccc([C@H]5CCC(=O)NC5=O)cc4)CC3)CC2N1C(=O)C1(c2ccccc2)CCN(c2cnnc(-c3ccccc3O)c2)CC1 (stereo partly drawn) [Example 50, (3R)-3-(4-{4-[(1-{1-[6-(2-hydroxyphenyl)pyridazin-4-yl]-4-phenylpiperidine-4-carbonyl}-2-methyl-hexahydropyrrolo[2,3-c]pyrrol-5-yl)methyl]piperidin-1-yl}phenyl)piperidine-2,6-dione] | 136 | 53.4 | 73.54 | 20.2 | –
Cc1ccnn1C1(C(=O)N(C)C2CCN(C3COC4(CCN(c5ccc([C@H]6CCC(=O)NC6=O)cc5)CC4)C3)CC2)CCN(c2cnnc(-c3ccccc3O)c2)CC1 (mixture of isomers) [Example 63, N-{1-[(3RS)-8-{4-[(3R)-2,6-dioxopiperidin-3-yl]phenyl}-1-oxa-8-azaspiro[4.5]decan-3-yl]piperidin-4-yl}-1-[6-(2-hydroxyphenyl)pyridazin-4-yl]-n-methyl-4-(5-methyl-1H-pyrazol-1-yl)piperidine-4-carboxamide] | 8.77 | 80.5 | 1140 | 32.2 | –
O=C1CC[C@H](c2ccc(N3CCC(CN4CCC(C5CCN(C(=O)C6(c7ccccc7)CCN(c7cnnc(-c8ccccc8O)c7)CC6)CC5)C4)CC3)cc2)C(=O)N1 (stereo partly drawn) [Example 48, (3R)-3-[4-(4-{[3-(1-{1-[6-(2-hydroxyphenyl)pyridazin-4-yl]-4-phenylpiperidine-4-carbonyl}piperidin-4-yl)pyrrolidin-1-yl]methyl}piperidin-1-yl)phenyl]piperidine-2,6-dione] | – | 35.6 | 1 | 16.3 | –
CC(C)c1cc(C2(C(=O)N(C)C3CCN(CC4CCN(c5ccc(C6CCC(=O)NC6=O)cc5)CC4)CC3)CCN(c3cnnc(-c4ccccc4O)c3)CC2)no1 (racemic) [Example 98, rac-N-{1-[(1-{4-[(3R)-2,6-dioxopiperidin-3-yl]phenyl}piperidin-4-yl)methyl]piperidin-4-yl}-1-[6-(2-hydroxyphenyl)pyridazin-4-yl]-N-methyl-4-[5-(propan-2-yl)-1,2-oxazol-3-yl]piperidine-4-carboxamide] | 5.55 | 86.7 | 10 | 58.1 | 57.9
O=C1CC[C@H](c2ccc(N3CCC(CN4CC[C@H]5[C@H](CCN5C(=O)C5(c6ccccc6)CCN(c6cnnc(-c7ccccc7O)c6)CC5)C4)CC3)cc2)C(=O)N1 (mixture of isomers) [Example 155, (3R)-3-[4-(4-{[(3aRS,7aSR)-1-{1-[6-(2-hydroxyphenyl)pyridazin-4-yl]-4-phenylpiperidine-4-carbonyl}-octahydro-1H-pyrrolo[3,2-c]pyridin-5-yl]methyl}piperidin-1-yl)phenyl]piperidine-2,6-dione] | 13.7 | 75 | 730 | 51.5 | –
CN(C(=O)C1(c2cnn(C)c2)CCN(c2cnnc(-c3ccccc3O)c2)CC1)C1CCN(CCC2CCN(c3ccc(C4CCC(=O)NC4=O)cc3)CC2)CC1 (racemic) [Example 94, rac-N-{1-[2-(1-{4-[(3R)-2,6-dioxopiperidin-3-yl]phenyl}piperidin-4-yl)ethyl]piperidin-4-yl}-1-[6-(2-hydroxyphenyl)pyridazin-4-yl]-N-methyl-4-(1-methyl-1H-pyrazol-4-yl)piperidine-4-carboxamide] | 2.24 | 87.3 | 4454 | 33 | –
CN(C(=O)C1(c2ccccc2)CCN(c2cnnc(-c3ccccc3O)c2)CC1)C1CCN([C@@H]2COC3(CCN(c4ccc([C@H]5CCC(=O)NC5=O)cc4)CC3)C2)CC1 (single isomer, unassigned) [Example 148] | 6.84 | 83 | 1462 | 41.4 | –
O=C1CCC(c2ccc(OCC3CCN(C(=O)C4CCN(C(=O)C5(c6ccccc6)CCN(c6cnnc(-c7ccccc7O)c6)CC5)CC4)CC3)cc2)C(=O)N1 (racemic) [Example 14, rac-(3R)-3-(4-{[1-(1-{1-[6-(2-hydroxyphenyl)pyridazin-4-yl]-4-phenylpiperidine-4-carbonyl}piperidine-4-carbonyl)piperidin-4-yl]methoxy}phenyl)piperidine-2,6-dione] | – | 22.2 | 1 | 15.2 | –
CN(CC1(c2ccccc2)CCN(c2cnnc(-c3ccccc3O)c2)CC1)C1CCN(C(=O)CN2CCC(c3ccc(C4CCC(=O)NC4=O)cc3)CC2)CC1 (racemic) [Example 143, rac-(r)-3-(4-(1-(2-(4-(((1-(6-(2-hydroxyphenyl)pyridazin-4-yl)-4-phenylpiperidin-4-yl)methyl)(methyl)amino)piperidin-1-yl)-2-oxoethyl)piperidin-4-yl)phenyl)piperidine-2,6-dione] | 13.3 | 86.5 | 12 | 66.7 | 161
